# Where two headings read alike, the source gives them in different places.
# Legend:
# [1] = test system: P450-Glo detection reaction (unspecific esterase and modified firefly-luciferase)
# Description: (§1) This detection-reagent consists of i) a detergent that stops the CYP2D6 enzyme reaction, ii) an unspecific esterase that continuously releases luciferin and iii) a modified firefly-luciferase, thus a stable luminogenic signal is generated, which can be quantified by a luminometer (Fig. 1). The detection reaction is incorporated in the P450-Glo CYP2D6 inhibition assay. However, we implemented additional controls for unspecific interactions of the test compounds with the detection reaction. For this purpose, the previously established luminescence quenching control reaction reported by Modarai et al.[9] was adapted to our requirements with modifications for the use of larger sample volumes. In addition, Modarai et al. converted ME-luciferin-EGE to luciferin in the absence of a test compound and then evaluated the inhibition of the luciferase reaction.We conducted the control step by using pure luciferin-EGE, esterase, luciferase and a test compound in the absence of CYP2D6 (Supplementary Table S4).
# (§2) The quantification of the P450-Glo detection reaction was performed by subtracting the background values prior to calculating the percentage of total luminescence (% TL) based on the total luminescence obtained from the solvent control (set to 100%).
# (§3) We then added 12.5 µl 4× reaction mixture (5 µl 1.5 mM luciferin-EGE stock solution, 500 µl 1 M KPO4 buffer and 745 µl luciferase free water) to the wells. Finally, 25 µl of the 2× NADPH regeneration system was added. In order to initiate the detection reaction, 50 µl of the reconstituted luciferin detection reagent containing the esterase was added to the samples, positive and solvent control wells. This step was followed by 20 minutes incubation in the dark for signal stabilization. In the wells reserved for background luminescence, luciferase-free water was added. Measurements were performed on a Tecan infinite F200 PRO plate reader on two independent days (n = 2) at minimum.
# (§4) Raw data obtained from Tecan infinite F200 PRO plate reader was processed by calculating total luminescence (% of untreated control) by applying the formula: raw data − (background luminescence) * 100/mean of negative control.
# (§5) A one-way ANOVA followed by Dunnett’s multiple comparisons test was performed. […] A p-value of < 0.05 was used to indicate significance.
# CYP2D6 [2] = target: T1, CYP2D6 (Homo sapiens, UniProt P10635); experiment: in vitro; settings: recombinant enzyme, pH 7.4
# Description: (§6) Their CYP2D6 inhibitory potential was determined at a concentration of 100 µM in a final reaction volume of 50 µl. […] All compounds were dissolved in DMSO and the concentration thereof in the final reaction volume was 1%, according to the limitations indicated in the manufacturer’s protocol. […] To take into account the background luminescence, which may derive from a non-enzymatic conversion of ME-luciferin-EGE to luciferin, we included a ‘minus P450’ control that contained no CYP2D6 enzyme. In order to quantify CYP2D6 activity, we subtracted background values prior to calculating the percentage of total luminescence (% TL) obtained from the solvent control (set to 100%). Low % TL indicates low CYP2D6 activity.
# (§7) In the three minus P450 control wells, 12.25 µl of the 4× reaction mixture was added. […] The plate was incubated for 10 minutes. The CYP2D6 enzyme reaction was initiated by the addition of 25 µl of 2× NADPH regeneration system (2.6 mM NADP^+, 6.6 mM glucose-6-phosphate, 6.6 mM MgCl2 and 0.8 U/ml glucose-6-phosphate dehydrogenase buffered in 0.1 mM sodium citrate at pH 5.5; Promega). After 45 minutes incubation, the enzyme reaction was stopped by the addition of 50 µl of the luciferin detection reagent, which contained also the esterase for the generation of the luminescence signal. The plate was incubated in the dark for 20 minutes in order to stabilize the signal measured by a Tecan infinite F200 PRO plate reader. […] The maximum allowed DMSO concentration in the final reaction mix was 1% according to the manufacturer’s protocol. The experiment was performed at room temperature and under prevention of excessive UV-light at minimum on two independent days (n = 2).
# (§8) Concentration-dependent CYP2D6 inhibition assays were performed by preparing a 5-step dilution series of the 400 µM compound solutions. […] After this dilution step, 12.5 µl of each dilution was transferred to the assay plate. The assay was performed as described above. The DMSO concentration was kept constant for all concentrations with a maximum of 1%. The experiments were performed on three independent experimental days (n = 3).
# as §4
# CYP2D6 [3] = target: T1, CYP2D6; settings: recombinant enzyme
# Description: as §6, §7, §8, §4
# CYP2D6 [4] = target: T1, CYP2D6; experiment: P450-Glo CYP2D6 inhibition assay (bioluminescence-based; pre-screen at 100 µM and IC50 determination); settings: for classification of CYP2D6 inhibition (actives / weak actives / inactives): ranked by IC50, inactives from pre-screen at 100 µM
# Description: as §6, §7, §8, §4
# [5] = test system: P450-Glo detection reaction (unspecific esterase and modified firefly-luciferase); experiment: P450-Glo detection reaction control (luciferin-EGE, esterase, luciferase, test compound, no CYP2D6)
# Description: as §1, §2, §3, §4, §5
# firefly-luciferase = settings: cited from earlier work
# CYP2D6 [6] = experiment: CYP2D6 inhibition of virtual hits already reported in the literature; settings: authors' classification of the literature value, Supplementary Table S2
# Description: the hits according to non-available CYP2D6 inhibition data, plant origin and availability. The
# CYP2D6 [7] = settings: Supplementary Table S2, supplementary reference list, cited from earlier work; for IC50: read-out: Inhibitory potency IC50
# CYP2D6 [8] = test system: CYP2D6; set-up: method as in earlier work; settings: ME-luciferin-EGE as CYP2D6 substrate; cited from earlier work
# T1 sequence (P10635 whole entry): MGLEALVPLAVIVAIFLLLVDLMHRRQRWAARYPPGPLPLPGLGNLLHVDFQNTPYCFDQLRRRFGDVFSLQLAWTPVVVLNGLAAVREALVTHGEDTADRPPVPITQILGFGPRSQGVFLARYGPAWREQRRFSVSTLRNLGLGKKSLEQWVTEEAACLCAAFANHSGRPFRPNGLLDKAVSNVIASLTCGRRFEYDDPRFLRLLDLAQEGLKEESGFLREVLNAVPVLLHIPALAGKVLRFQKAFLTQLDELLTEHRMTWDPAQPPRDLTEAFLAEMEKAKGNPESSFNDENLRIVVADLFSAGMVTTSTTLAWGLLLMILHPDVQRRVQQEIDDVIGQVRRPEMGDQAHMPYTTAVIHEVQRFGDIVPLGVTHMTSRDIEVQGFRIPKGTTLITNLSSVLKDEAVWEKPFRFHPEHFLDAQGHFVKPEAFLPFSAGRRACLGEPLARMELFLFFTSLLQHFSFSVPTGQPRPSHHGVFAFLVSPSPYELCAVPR
structure (smiles),measurement,setting,value
"CN1Cc2c(ccc3c2OCO3)[C@@H]2[C@H]1c1cc3c(cc1C[C@@H]2O)OCO3 [Compound 21, (+)-Chelidonine]",P450-Glo Detection Reaction MEAN (total luminescence),[1],98.77 % TL
same,inhibition at 100 µM,CYP2D6 [2],99.5%
same,classification of CYP2D6 inhibition (actives / weak actives / inactives),CYP2D6 [3],"actives (key: actives: those compounds were classified as active, which exhibited CYP2D6 IC50 values up to 10 µM; inactives showed less than 50 % total luminescence at a concentration of 100 µM)"
same,total luminescence in CYP2D6 inhibition pre-screen,CYP2D6 [3]; 100 µM,0.45 % TL
same,IC50,CYP2D6 [4],0.0225 µM
"COC(=O)C1=CO[C@@H](C)[C@@H]2CN3CC[C@@]4(C(=O)Nc5ccccc54)[C@@H]3C[C@H]12 [Compound 2, Isopteropodine]",inhibition at 100 µM,CYP2D6 [2],56.8%
same,P450-Glo Detection Reaction MEAN Diff. (inhibition of the detection reaction),"[5]; 50 µM test compound, difference to DMSO 1% control",7.57%
same,P450-Glo Detection Reaction MEAN (total luminescence),"[5]; 50 µM test compound, no CYP2D6, DMSO control = 100",92.43 % TL
same,p < 0.05 (significant inhibition of the P450-Glo detection reaction),"[5]; 50 µM, one-way ANOVA, Dunnett's test vs DMSO control",Yes
same,IC50,CYP2D6 [4],89.1 µM
same,total luminescence in CYP2D6 inhibition pre-screen,"CYP2D6 [4]; 100 µM test compound, solvent control = 100%, low % TL = low CYP2D6 activity",43.22 % TL
same,classification of CYP2D6 inhibition (actives / weak actives / inactives),CYP2D6 [4],weak actives
"Oc1ccc(/C=C/c2cc(O)cc(O)c2)cc1 [Compound 24, Resveratrol, reference compound]",inhibition of firefly-luciferase,firefly-luciferase,lower micromolar range
same,classification of CYP2D6 inhibition (actives / weak actives / inactives),CYP2D6 [4],weak actives
CCC12C=CCN3CC[C@@]4(c5ccc(OC)cc5N(C)[C@H]4[C@@](O)(C(=O)OC)[C@@H]1OC(C)=O)[C@@H]32 (some centres unmarked) [Vindoline],Classification of literature CYP2D6 inhibition,CYP2D6 [6],active
same,IC50,CYP2D6 [7],15.9 µM
COc1cc2c(cc1O)CCN1Cc3c(ccc(OC)c3OC)C[C@H]21 [Corypalmine],Classification of literature CYP2D6 inhibition,CYP2D6 [6],active
same,IC50,CYP2D6 [7],1 to 10 µM
"COc1ccc2nc(C3=NC(C(=O)OCCO)CS3)sc2c1 (centres unmarked) [ME-luciferin-EGE, methoxy-luciferin-ethylene glycol ester]",turnover number (kcat),CYP2D6 [8],0.118 s⁻¹
COC(=O)C1=CO[C@@H](C)[C@H]2CN3CCc4c([nH]c5ccccc45)[C@@H]3C[C@H]12 [Ajmalicine],Classification of literature CYP2D6 inhibition,CYP2D6 [6],active
same,IC50,CYP2D6 [7],0.0023 µM
"COc1ccc(Cc2nccc3cc(OC)c(OC)cc23)cc1OC [Compound 6, Papaverine]",P450-Glo Detection Reaction MEAN (total luminescence),[1],82.48 % TL
same,classification of CYP2D6 inhibition (actives / weak actives / inactives),CYP2D6 [3],"actives (key: actives: those compounds were classified as active, which exhibited CYP2D6 IC50 values up to 10 µM; inactives showed less than 50 % total luminescence at a concentration of 100 µM)"
same,IC50,CYP2D6 [4],7.02 µM
COc1ccc2c(c1OC)C(=O)O[C@@H]2[C@H]1c2c(cc3c(c2OC)OCO3)CCN1C [Noscapine],Classification of literature CYP2D6 inhibition,CYP2D6 [6],inactive
same,Inhibitory potency (IC50/Ki not specified),CYP2D6 [7],> 100 µM

# — PMC5556109, “A combinatorial approach for the discovery of cytochrome P450 2D6 inhibitors from nature” (Scientific Reports, 2017)
